Measurements from patent publication US9422267B2, “Fused pyrimidine compounds and use thereof” (Medivation Technologies, Inc., priority 2012, dated 2016).

What was measured:
NTRK2 (TRKB) = NTRK2 (TRKB) (Homo sapiens, UniProt Q16620); assay: Caliper kinase profiling: NTRK2 (TRKB); conditions: 0.01 μM
Method: (§7) The compound was tested at concentrations of 1.0×10^−8 and 1.0×10^−9 M in the RapidKinase192™ panel in duplicate. […] The screening was performed using the Caliper EZReader2, a 4-sipper LabChip, and ProfilerPro Kinase Selectivity Assay Kits 1 and 2. The assay measures the conversion of a fluorescent peptide substrate to a phosphorylated product. Briefly, the reaction mixture was introduced through a capillary sipper onto the microfluidic chip, where the substrate and product were electrophoretically separated and detected by laser-induced fluorescence. The time-dependent fluorescence signal indicates the extent of the reaction.
(§8) The kinases tested were AurA, AurB, AurC, AXL, FAK2, IGF1R, InsR, Mer, MET, TrkB and TrkC.
(§9) The assays were conducted using the Caliper LabChip 3000 and a 12-sipper LabChip as described above.

[1] = tested on: Akt phosphorylation induced by IGF-1R in HT-29 cells; assay: Western blot analysis of Akt phosphorylation induced by IGF-1R; format: cell-based, Human; conditions: then IGF-1 10 ng/mL 10 min, HT-29
Method: Inhibition of Akt phosphorylation induced by IGF-1R was studied by western blot analysis. Human colon carcinoma HT-29 cells were seeded at a density of 8×10^4 cells/well in a 24-well plate and grown in DME/F12 media containing 10% FBS for 24 h. The cells were then depleted of serum by incubation in DME/F12 media lacking FBS for 24 h. […] […] Lysed cells were centrifuged at 13,000 rpm for 15 min and the protein concentration soluble fraction (supernatant) of each sample was determined using a BCA protein assay (Pierce).

UACC 812 = assay: Cell Titer-Glo cell viability: UACC 812; format: cell-based; conditions: Homo sapiens
Method: (§1) Compound nos. […] This panel of cell lines includes an ER− breast carcinoma, primary breast ductal carcinoma, prostate adenocarcinoma, mammary adenocarcinoma, mammary ductal carcinoma, mammary ductal carcinoma, ovary adenocarcinoma, ER+ breast carcinoma, ER-HER2+ mammary ductal carcinoma and an ER+ mammary ductal carcinoma, respectively.
(§2) This assay quantitates the ATP present in order to determine the number of viable cells in culture. Briefly, the compounds were incubated with the cells for 72 h, followed by cell lysis. The resulting luminescent signal is proportional to the amount of ATP present and, therefore, directly proportional to the number of cells present in culture.
(§3) Compounds 2b, 5, 6b and 10a were tested along with derivatives in viability assays as described above by Caliper LifeSciences Systems (Hanover, Md.), in A549, HCT-15, HCT-116, MCF-7, MDA-MB-231, OVCAR3, T47D, COLO205, HT-29, BT-20, HCC1187, HL-60, MDA-MB-175, SW-620, and UACC812 cells.
(§4) The inhibitory effects of Compound 8a were tested in two cell lines.

T47D = assay: Cell Titer-Glo cell viability: T47D; format: cell-based; conditions: Homo sapiens, breast cancer
Method: as §1, §2, §3

HCT-15 = assay: Cell Titer-Glo cell viability: HCT-15; format: cell-based; conditions: Homo sapiens, HCT15, colon carcinoma
Method: as §2
(§5) Compound nos. […] These cell lines are derived from human lung carcinoma, colon adenocarcinoma, colon adenocarcinoma, colon carcinoma, acute promyelocytic leukemia, colon adenocarcinoma, colon adenocarcinoma (from metastatic site lymph node), respectively.
as §3

SW-620 = assay: Cell Titer-Glo cell viability: SW-620; format: cell-based; conditions: Homo sapiens, SW-620, metastatic colorectal cancer
Method: as §2, §5, §3

MDA MB 175 = assay: Cell Titer-Glo cell viability: MDA MB 175; format: cell-based; conditions: MDA-MB-175, breast cancer; 72 h incubation, Cell Titer-Glo
Method: as §1, §2, §3, §4

HT-29 = assay: Cell Titer-Glo cell viability: HT-29; format: cell-based; conditions: Homo sapiens, HT-29, 72 h
Method: as §2, §5, §3

A549 = assay: Cell Titer-Glo cell viability: A549; format: cell-based; conditions: Homo sapiens, A549, non-small lung carcinoma
Method: as §2, §5, §3

HCT-116 = assay: Cell Titer-Glo cell viability: HCT-116; format: cell-based; conditions: Homo sapiens, HCT116, colon carcinoma
Method: as §2, §5, §3

OVCAR-3 = assay: Cell Titer-Glo cell viability: OVCAR-3; format: cell-based; conditions: Homo sapiens, OVCAR3, ovarian cancer
Method: as §1, §2, §3

LNCaP = assay: Cell Titer-Glo cell viability: LNCaP; format: cell-based; conditions: Homo sapiens
Method: as §1, §2

MDA MB 231 = assay: Cell Titer-Glo cell viability: MDA MB 231; format: cell-based; conditions: Homo sapiens, MDAMB231, breast cancer, 72 h incubation, Cell Titer-Glo
Method: as §1, §2, §3

BT-20 = assay: Cell Titer-Glo cell viability: BT-20; format: cell-based; conditions: Homo sapiens
Method: as §1, §2, §3

HL-60 = assay: Cell Titer-Glo cell viability: HL-60; format: cell-based, human
Method: as §2, §5, §3

TRKC (NTRK3) = TRKC (NTRK3) (Homo sapiens, UniProt Q16288); assay: Caliper kinase profiling: TRKC (NTRK3); conditions: 0.01 μM
Sequence of TRKC (NTRK3) (Q16288 32-839): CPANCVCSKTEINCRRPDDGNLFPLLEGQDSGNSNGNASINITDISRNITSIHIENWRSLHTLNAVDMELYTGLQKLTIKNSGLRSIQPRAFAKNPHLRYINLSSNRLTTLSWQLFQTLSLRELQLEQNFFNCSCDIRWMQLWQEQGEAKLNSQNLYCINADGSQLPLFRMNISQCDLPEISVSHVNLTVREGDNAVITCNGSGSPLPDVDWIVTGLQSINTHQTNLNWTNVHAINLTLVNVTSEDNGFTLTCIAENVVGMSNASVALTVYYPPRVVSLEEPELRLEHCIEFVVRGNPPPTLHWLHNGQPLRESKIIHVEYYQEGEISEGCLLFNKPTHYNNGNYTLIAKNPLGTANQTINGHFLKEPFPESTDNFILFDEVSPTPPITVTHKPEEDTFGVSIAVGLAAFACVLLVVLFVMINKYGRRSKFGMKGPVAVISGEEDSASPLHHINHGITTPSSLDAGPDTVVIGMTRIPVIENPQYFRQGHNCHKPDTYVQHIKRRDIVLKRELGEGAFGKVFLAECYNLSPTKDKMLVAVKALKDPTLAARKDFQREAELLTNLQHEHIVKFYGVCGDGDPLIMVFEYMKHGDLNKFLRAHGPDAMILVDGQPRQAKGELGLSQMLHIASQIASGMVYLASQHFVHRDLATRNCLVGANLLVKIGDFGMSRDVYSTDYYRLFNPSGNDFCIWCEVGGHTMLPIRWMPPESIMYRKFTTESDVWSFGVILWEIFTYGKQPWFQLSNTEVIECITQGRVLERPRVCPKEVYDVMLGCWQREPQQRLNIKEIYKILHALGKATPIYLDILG
Method: as §7, §8, §9

FAK2(PTK2b) = FAK2(PTK2b) (Homo sapiens, UniProt Q14289); assay: Caliper kinase assay: FAK2(PTK2b); conditions: 0.01 μM
Sequence of FAK2(PTK2b) (Q14289 whole entry): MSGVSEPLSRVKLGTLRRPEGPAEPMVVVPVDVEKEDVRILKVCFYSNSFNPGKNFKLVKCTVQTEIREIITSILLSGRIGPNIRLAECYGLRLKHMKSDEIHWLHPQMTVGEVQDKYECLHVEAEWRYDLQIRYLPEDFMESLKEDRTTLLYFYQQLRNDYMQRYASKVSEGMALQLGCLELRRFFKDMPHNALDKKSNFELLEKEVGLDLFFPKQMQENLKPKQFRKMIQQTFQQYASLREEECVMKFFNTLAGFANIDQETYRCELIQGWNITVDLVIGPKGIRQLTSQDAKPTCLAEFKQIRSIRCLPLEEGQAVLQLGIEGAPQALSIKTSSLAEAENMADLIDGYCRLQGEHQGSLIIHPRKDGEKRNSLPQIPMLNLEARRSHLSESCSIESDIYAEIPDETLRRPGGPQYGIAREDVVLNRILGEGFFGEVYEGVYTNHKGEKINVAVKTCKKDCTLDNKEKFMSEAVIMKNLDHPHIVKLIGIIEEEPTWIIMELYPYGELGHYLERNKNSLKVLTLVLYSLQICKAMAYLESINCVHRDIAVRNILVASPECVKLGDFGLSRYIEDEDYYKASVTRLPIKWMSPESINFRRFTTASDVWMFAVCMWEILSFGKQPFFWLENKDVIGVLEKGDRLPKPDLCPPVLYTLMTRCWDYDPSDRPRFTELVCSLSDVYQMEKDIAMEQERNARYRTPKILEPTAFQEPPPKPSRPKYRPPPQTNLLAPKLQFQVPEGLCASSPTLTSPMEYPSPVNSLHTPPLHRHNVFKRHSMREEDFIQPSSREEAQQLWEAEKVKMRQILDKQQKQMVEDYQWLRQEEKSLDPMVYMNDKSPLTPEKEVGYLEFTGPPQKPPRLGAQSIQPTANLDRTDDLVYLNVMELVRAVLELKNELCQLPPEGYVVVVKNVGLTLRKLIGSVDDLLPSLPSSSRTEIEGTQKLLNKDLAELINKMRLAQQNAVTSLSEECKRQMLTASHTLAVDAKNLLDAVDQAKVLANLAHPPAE
Method: as §7, §8, §9

MCF-7 = assay: Cell Titer-Glo cell viability: MCF-7; format: cell-based; conditions: Homo sapiens, MCF7, breast cancer
Method: as §1, §2, §3

HCC 1187 = assay: Cell Titer-Glo cell viability: HCC 1187; format: cell-based; conditions: Homo sapiens
Method: as §1, §2, §3

AXL = target: T1, AXL (Homo sapiens, UniProt P30530); assay: Caliper kinase profiling: AXL; conditions: 0.01 μM
T1 sequence (P30530 26-894): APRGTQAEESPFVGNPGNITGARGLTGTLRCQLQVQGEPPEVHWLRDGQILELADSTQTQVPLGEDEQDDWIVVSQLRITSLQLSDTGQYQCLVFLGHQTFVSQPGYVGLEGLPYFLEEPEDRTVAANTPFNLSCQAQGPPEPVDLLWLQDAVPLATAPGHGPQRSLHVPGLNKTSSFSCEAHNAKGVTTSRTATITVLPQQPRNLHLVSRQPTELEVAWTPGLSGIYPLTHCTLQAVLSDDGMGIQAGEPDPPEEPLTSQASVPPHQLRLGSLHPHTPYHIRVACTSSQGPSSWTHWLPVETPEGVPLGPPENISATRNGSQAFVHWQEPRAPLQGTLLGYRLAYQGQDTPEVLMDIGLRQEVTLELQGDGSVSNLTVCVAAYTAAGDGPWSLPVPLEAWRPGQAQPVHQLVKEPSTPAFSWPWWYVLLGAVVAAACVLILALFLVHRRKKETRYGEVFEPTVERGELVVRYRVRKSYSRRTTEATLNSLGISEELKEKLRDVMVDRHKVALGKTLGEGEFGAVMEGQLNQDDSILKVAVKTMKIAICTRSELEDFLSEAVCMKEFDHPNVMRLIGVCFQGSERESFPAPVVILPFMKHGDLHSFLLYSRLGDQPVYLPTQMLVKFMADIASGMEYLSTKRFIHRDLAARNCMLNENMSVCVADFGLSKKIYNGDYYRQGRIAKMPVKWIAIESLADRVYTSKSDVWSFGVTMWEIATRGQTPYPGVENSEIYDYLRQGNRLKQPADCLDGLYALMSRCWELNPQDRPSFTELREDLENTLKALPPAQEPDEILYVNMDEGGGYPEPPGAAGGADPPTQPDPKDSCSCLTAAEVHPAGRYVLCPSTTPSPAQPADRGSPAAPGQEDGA
Method: as §7, §8, §9

COLO 205 = assay: Cell Titer-Glo cell viability: COLO 205; format: cell-based; conditions: Homo sapiens
Method: as §2, §5, §3

IR = target: T2, IR (Homo sapiens, UniProt P06213); assay: In vitro IR enzymatic assay (ADP-Glo kinase assay); format: biochemical; conditions: activated IR; read-out: IC50
T2 construct: purchased Millipore 14-803
Method: (§6) IC50 values of the compounds of the invention against IGF-1R and IR were measured in vitro using an ADP-Glo kinase assay Kit (Promega). […] Kinase reactions in both assays were conducted at 30° C. for 20 min with increasing concentrations of compounds of the invention.

IGF1R [2] = target: T3, IGF1R (Homo sapiens, UniProt P08069); assay: In vitro IGF-1R enzymatic assay (ADP-Glo kinase assay); format: biochemical; design: purchased Millipore 14-802; conditions: activated IGF-1R; read-out: IC50
T3 sequence (P08069 31-1367): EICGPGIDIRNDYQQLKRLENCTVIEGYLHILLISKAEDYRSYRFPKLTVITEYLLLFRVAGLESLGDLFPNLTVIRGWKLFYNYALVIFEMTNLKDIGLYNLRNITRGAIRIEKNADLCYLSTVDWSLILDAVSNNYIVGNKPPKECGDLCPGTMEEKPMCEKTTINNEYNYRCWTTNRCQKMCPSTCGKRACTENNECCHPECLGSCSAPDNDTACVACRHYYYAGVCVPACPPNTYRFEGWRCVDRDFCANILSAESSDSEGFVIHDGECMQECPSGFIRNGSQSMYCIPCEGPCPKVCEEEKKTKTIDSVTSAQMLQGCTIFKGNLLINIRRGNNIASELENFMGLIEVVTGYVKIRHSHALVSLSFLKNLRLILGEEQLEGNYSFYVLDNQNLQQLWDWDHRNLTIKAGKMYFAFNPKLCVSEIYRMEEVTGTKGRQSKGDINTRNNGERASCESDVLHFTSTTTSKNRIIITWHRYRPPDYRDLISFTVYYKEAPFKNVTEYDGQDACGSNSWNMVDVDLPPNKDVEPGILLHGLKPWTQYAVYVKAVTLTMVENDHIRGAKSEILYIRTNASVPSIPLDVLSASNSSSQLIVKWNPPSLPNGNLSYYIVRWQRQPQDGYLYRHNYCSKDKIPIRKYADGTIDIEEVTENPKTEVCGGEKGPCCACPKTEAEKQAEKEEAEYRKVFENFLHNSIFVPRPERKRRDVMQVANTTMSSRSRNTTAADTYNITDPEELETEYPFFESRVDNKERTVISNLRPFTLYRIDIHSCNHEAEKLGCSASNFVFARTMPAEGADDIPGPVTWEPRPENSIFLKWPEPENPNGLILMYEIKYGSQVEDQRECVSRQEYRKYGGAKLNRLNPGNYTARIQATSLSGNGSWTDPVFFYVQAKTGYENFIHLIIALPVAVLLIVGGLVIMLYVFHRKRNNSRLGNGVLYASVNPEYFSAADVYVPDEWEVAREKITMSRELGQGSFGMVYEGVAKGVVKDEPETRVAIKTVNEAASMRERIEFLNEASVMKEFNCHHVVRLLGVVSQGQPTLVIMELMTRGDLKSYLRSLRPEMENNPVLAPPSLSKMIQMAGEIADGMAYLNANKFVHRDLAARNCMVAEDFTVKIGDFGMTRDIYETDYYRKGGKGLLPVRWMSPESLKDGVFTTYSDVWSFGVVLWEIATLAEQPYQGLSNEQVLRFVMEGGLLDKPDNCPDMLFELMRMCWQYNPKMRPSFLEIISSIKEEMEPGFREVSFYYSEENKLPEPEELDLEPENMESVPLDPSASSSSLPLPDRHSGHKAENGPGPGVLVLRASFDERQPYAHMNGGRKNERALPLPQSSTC
Method: as §6

ZR-75-1 = assay: Cell Titer-Glo cell viability: ZR-75-1; format: cell-based; conditions: Homo sapiens; ZR-75-1, breast cancer; 72 h
Method: as §1, §2

KDR = KDR (Homo sapiens, UniProt P35968); assay: Caliper kinase profiling: KDR; format: biochemical; conditions: read-out: Average % Inh @ 1 μM
Method: as §7

IGF1R [3] = target: T3, IGF1R; assay: Caliper kinase profiling: IGF1R; format: biochemical; design: purchased Caliper LifeSciences (ProfilerPro Kinase Selectivity Assay Kits); conditions: 1 μM, read-out: Average % Inh @ 1 μM
Method: as §7

[4] = 72 h incubation, Cell Titer-Glo
[5] = HT29, colon adenocarcinoma (second entry of the table), 72 h

Sequence of NTRK2 (TRKB) (Q16620 32-822): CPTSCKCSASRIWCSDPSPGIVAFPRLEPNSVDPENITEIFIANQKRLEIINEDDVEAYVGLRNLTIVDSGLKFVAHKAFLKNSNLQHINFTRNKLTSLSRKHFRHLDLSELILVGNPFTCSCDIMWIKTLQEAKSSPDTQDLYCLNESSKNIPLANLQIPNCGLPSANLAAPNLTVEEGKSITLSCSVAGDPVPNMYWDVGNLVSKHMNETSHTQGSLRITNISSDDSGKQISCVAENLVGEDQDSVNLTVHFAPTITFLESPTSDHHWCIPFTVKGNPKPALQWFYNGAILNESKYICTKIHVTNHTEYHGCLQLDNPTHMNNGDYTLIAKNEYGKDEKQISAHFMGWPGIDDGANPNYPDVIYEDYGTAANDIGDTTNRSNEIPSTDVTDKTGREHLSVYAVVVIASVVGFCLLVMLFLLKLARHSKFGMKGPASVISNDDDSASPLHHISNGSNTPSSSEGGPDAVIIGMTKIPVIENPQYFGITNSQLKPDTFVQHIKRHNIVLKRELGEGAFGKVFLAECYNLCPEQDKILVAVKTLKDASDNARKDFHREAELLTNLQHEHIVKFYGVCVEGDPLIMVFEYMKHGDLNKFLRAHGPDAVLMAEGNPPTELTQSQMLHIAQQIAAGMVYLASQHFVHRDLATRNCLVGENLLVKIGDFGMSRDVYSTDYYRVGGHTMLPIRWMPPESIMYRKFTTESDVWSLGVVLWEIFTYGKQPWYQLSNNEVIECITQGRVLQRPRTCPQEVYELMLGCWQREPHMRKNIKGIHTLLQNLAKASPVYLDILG

## O=C(Nc1ccc(F)nc1)C1CC(O)CN1c1nc2c(c(Nc3cc(C4CC4)[nH]n3)n1)CCC2 (single isomer, unassigned) [Compound 10a]
NTRK2 (TRKB)
  inhibition of TrkB in panel of 11 kinases: strongly inhibited
[1]; 1 nM compound 2 h
  phosphorylated AKT levels normalized to actin levels (pAKT/actin): 0.54
[1]; 10 nM compound 2 h
  phosphorylated AKT levels normalized to actin levels (pAKT/actin): 0.00
[1]; 100 nM compound 2 h
  phosphorylated AKT levels normalized to actin levels (pAKT/actin): 0.01
UACC 812; UACC 812, breast cancer, 72 h incubation, Cell Titer-Glo
  IC50: < 10 µM
T47D; [4]
  IC50: 1 µM
HCT-15; HCT-15, 72 h, 72 h incubation, Cell Titer-Glo
  IC50: < 100 µM
SW-620; SW-620, 72 h, 72 h incubation, Cell Titer-Glo
  IC50: < 10 µM
MDA MB 175
  IC50: < 10 µM
HT-29; HT-29, colon adenocarcinoma, 72 h incubation, Cell Titer-Glo
  IC50: < 0.1 µM
A549; A549, 72 h, 72 h incubation, Cell Titer-Glo
  IC50: < 10 µM
HCT-116; [4]
  IC50: 10 µM
OVCAR-3; [4]
  IC50: 1 µM
LNCaP; Prostate cancer, 72 h incubation, Cell Titer-Glo
  IC50: < 1 µM
MDA MB 231
  IC50: 10 µM
BT-20; BT-20, breast cancer, 72 h incubation, Cell Titer-Glo
  IC50: < 10 µM
HL-60; Homo sapiens, HL-60, 72 h, HL60, promyelocytic leukemia, 72 h incubation, Cell Titer-Glo
  IC50: 0.1 µM
TRKC (NTRK3)
  inhibition of TrkC in panel of 11 kinases: strongly inhibited
FAK2(PTK2b)
  inhibition of FAK2 in panel of 11 kinases: strongly inhibited
MCF-7; [4]
  IC50: < 1 µM
HCC 1187; HCC1187, HCC-1187, breast cancer, 72 h incubation, Cell Titer-Glo
  IC50: < 1 µM
AXL
  inhibition of AXL in panel of 11 kinases: strongly inhibited
COLO 205; COLO 205, 72 h, COLO205, colon cancer, 72 h incubation, Cell Titer-Glo
  IC50: < 0.1 µM

## O=C(Nc1ccc(F)nc1)C1CC(O)CN1c1nc2c(c(Nc3cc(C4CC4)[nH]n3)n1)CCC2 (single isomer, unassigned) [Compound 10d, 1-(4-(5-cyclopropyl-1H-pyrazol-3-ylamino)-6,7-dihydro-5H-cyclopenta[d]pyrimidin-2-yl)-N-(6-fluoropyridin-3-yl)-4-hydroxypyrrolidine-2-carboxamide]
NTRK2 (TRKB)
  inhibition of TrkB in panel of 11 kinases: strongly inhibited
IR
  IC50: 0.0072 µM
IGF1R [2]
  IC50: 0.0058 µM
TRKC (NTRK3)
  inhibition of TrkC in panel of 11 kinases: strongly inhibited
FAK2(PTK2b)
  inhibition of FAK2 in panel of 11 kinases: strongly inhibited
AXL
  inhibition of AXL in panel of 11 kinases: strongly inhibited

## C[C@@]1(C(=O)Nc2ccc(F)nc2)CCCN1c1nc(Nc2cc(C3CC3)n[nH]2)c2cccn2n1 [BMS-754807, (S)-1-(4-(5-cyclopropyl-1H-pyrazol-3-ylamino)pyrrolo[1,2-f][1,2,4]triazin-2-yl)-N-(6-fluoropyridin-3-yl)-2-methylpyrrolidine-2-carboxamide, reference compound]
[1]; 10 nM compound 2 h
  phosphorylated AKT levels normalized to actin levels (pAKT/actin): 0.09
[1]; 100 nM compound 2 h
  phosphorylated AKT levels normalized to actin levels (pAKT/actin): 0.02
UACC 812; UACC-812, UACC812, breast cancer, 72 h
  IC50: < 100 µM
T47D; 72 h
  IC50: < 10 µM
HCT-15; HCT-15, 72 h
  IC50: < 100 µM
SW-620; 72 h
  IC50: 1 µM
HT-29; [5]
  IC50: < 1 µM
HT-29; HT-29, colon cancer, 72 h
  IC50: < 10 µM
A549; 72 h
  IC50: < 10 µM
HCT-116; 72 h
  IC50: 10 µM
OVCAR-3; 72 h
  IC50: < 10 µM
LNCaP; prostate cancer, 72 h
  IC50: < 10 µM
BT-20; BT-20, BT20, breast cancer, 72 h
  IC50: < 100 µM
HL-60; HL-60, promyelocytic leukemia, 72 h
  IC50: < 10 µM
HL-60; Homo sapiens, HL-60, HL60, promyelocytic leukemia (second entry of the table), 72 h
  IC50: < 10 µM
ZR-75-1
  IC50: > 100 µM
MCF-7; 72 h
  IC50: 0.1 µM
HCC 1187; HCC1187, breast cancer, 72 h
  IC50: < 10 µM
COLO 205; COLO-205, colon adenocarcinoma, 72 h
  IC50: < 1 µM

## CC1(O)CC(c2nc(-c3ccc4ccc(-c5ccccc5)nc4c3)c3c(N)nccn23)C1 (stereo not shown) [OSI-906, 3-[8-Amino-1-(2-phenyl-7-quinolyl)imidazo[1,5-a]pyrazin-3-yl]-1-methyl-cyclobutanol, reference compound]
KDR
  inhibition at 1 µM: 40 to 59%
[1]; 1 nM compound 2 h
  phosphorylated AKT levels normalized to actin levels (pAKT/actin): 0.85
[1]; 100 nM compound 2 h
  phosphorylated AKT levels normalized to actin levels (pAKT/actin): 0.40
HCT-15; HCT-15, 72 h, 72 h
  IC50: < 100 µM
SW-620; SW-620, 72 h, 72 h
  IC50: < 100 µM
HT-29; [5]
  IC50: < 10 µM
HT-29; HT-29, colon cancer, 72 h
  IC50: < 100 µM
IGF1R [3]
  inhibition at 1 µM: > 60%
A549; A549, 72 h, 72 h
  IC50: 10 µM
HCT-116; 72 h
  IC50: < 100 µM
HL-60; Homo sapiens, HL-60, 72 h, HL60, promyelocytic leukemia (second entry of the table), 72 h
  IC50: < 10 µM
HL-60; Homo sapiens, HL-60, 72 h, HL-60, promyelocytic leukemia, 72 h
  IC50: < 100 µM
COLO 205; COLO 205, 72 h, COLO-205, colon adenocarcinoma, 72 h
  IC50: 1 µM
